Experimental findings from PMC7802075 (ACS Infectious Diseases, 2020) are described below.

Where a SMILES comes first, the peptide text is derived from it.

The first test has as its target T1, LmjIPCS (inositol phosphorylceramide synthase from L. major) (Leishmania major, UniProt E9AFX2).
T1 sequence (E9AFX2 1-338): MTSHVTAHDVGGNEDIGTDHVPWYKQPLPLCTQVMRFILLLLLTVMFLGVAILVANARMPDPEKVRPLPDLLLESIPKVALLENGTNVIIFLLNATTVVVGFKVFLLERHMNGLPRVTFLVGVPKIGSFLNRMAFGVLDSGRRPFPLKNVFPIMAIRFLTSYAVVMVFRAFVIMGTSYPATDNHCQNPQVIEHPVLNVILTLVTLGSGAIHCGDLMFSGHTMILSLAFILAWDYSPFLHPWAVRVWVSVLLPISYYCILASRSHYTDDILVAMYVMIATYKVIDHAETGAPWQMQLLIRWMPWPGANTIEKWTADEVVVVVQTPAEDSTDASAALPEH
Description: biochemical. Type of test: biochemical. On the set-up: inhibition: dose or concentration left out as unconfirmed.
Settings: not given
For the compound `Cc1oncc1C(=O)Nc1ccc(C(F)(F)F)cc1` [LEFUNOMIDE], the “20mM inhibition LmjIPCS” value is given as 10%.
Consider `CN1[C@@H](CC(=O)c2ccccc2)CCC[C@H]1C[C@H](O)c1ccccc1` [LOBELINE], for which the “20mM inhibition LmjIPCS” value is 38%.
For the compound `CC[C@H](C)C(=O)O[C@H]1C[C@@H](C)C=C2C=C[C@H](C)[C@H](CC[C@@H]3C[C@@H](O)CC(=O)O3)[C@H]21` [LOVASTATIN], the “20mM inhibition LmjIPCS” value stood at 41%.
For `CN1CCN(C2=Nc3ccccc3Oc3ccc(Cl)cc32)CC1` [LOXAPINE], the “20mM inhibition LmjIPCS” value was 68%.
For `CCN(CCCCOC(=O)c1ccc(OC)c(OC)c1)C(C)Cc1ccc(OC)cc1` (centres unmarked) [MEBEVERINE], the “20mM inhibition LmjIPCS” value is on record as 54%.
Regarding `OC(c1cc(C(F)(F)F)nc2c(C(F)(F)F)cccc12)C1CCCCN1` (centres unmarked) [MEFLOQUINE], the “20mM inhibition LmjIPCS” value is 49%.
The same measure, in the same setting: then `CC1=CC(=O)c2ccccc2C1=O` [MENADIONE], with 43%; and `Cc1cccc(C)c1NC(=O)C1CCCCN1C` (centres unmarked) [MEPIVACAINE], with 55%; and `C[C@H](N)[C@H](O)c1cccc(O)c1` [METARAMINOL], with 58%.
Regarding `CON` [METHOXYAMINE], the “20mM inhibition LmjIPCS” value amounted to 12%.
`CC[C@@H](CO)NC(=O)[C@@H]1C=C2c3cccc4[nH]cc(c34)C[C@H]2N(C)C1` [METHYLERGONOVINE]: the “20mM inhibition LmjIPCS” value came out at 35%.
In the case of `Cc1ccccc1N1C(=O)c2cc(S(N)(=O)=O)c(Cl)cc2NC1C` (centres unmarked) [METOLAZONE], the “20mM inhibition LmjIPCS” value is recorded as 50%.
For `COc1ccc2[nH]cc(CCN)c2c1` [MEXAMINE], the “20mM inhibition LmjIPCS” value turned out to be 25%.

The same test, now with this note: NINDS set screen, compound at 20mM (so in the source).
On to `Cc1c(OCC(F)(F)F)ccnc1C[S+]([O-])c1nc2ccccc2[nH]1` (centres unmarked) [LANSOPRAZOLE], for which the “20mM inhibition LmjIPCS” value is 23%.
Take `Cc1cc(C(C)(C)CC(C)(C)C)ccc1OCCOCC[N+](C)(C)Cc1ccccc1.[Cl-]` [METHYLBENZETHONIUM CHLORIDE]: the “20mM inhibition LmjIPCS” value was determined as 12%.

The same test, now with this note: NINDS set screen, single concentration printed as 20mM.
`CC[C@@H](C(=O)[C@@H](C)[C@@H](O)[C@H](C)CCc1ccc(C)c(O)c1C(=O)[O-])[C@H]1O[C@](CC)([C@H]2CC[C@](O)(CC)[C@H](C)O2)C[C@@H]1C.[Na+]` [LASALOCID SODIUM]: the “20mM inhibition LmjIPCS” value is recorded as 41%.
As for `C=C1c2c(Cl)ccc(O)c2C(=O)C2=C(O)[C@]3(O)C(=O)C(C(N)=O)=C(O)[C@@H](N(C)C)[C@@H]3[C@@H](O)[C@H]12` [MECLOCYCLINE], the “20mM inhibition LmjIPCS” value turned out to be 67%.
Same read-out and setting: the same measure for `CC12CC3CC(C)(C1)CC(N)(C3)C2` [MEMANTINE]: 66%.
As for `CSc1ccc2c(c1)C(N1CCN(C)CC1)Cc1ccccc1S2` (centres unmarked) [METHIOTHEPIN], the “20mM inhibition LmjIPCS” value is 55%.

Still in this test, the particulars now being: NINDS set screen; read-out: inhibition LmjIPCS.
On to `Nc1nc2c(c(=O)[nH]1)N(C=O)C(CNc1ccc(C(=O)N[C@@H](CCC(=O)O)C(=O)O)cc1)CN2` (some centres unmarked) [LEUCOVORIN], for which the inhibition came out at 17%.
As to `CNC1(C)C2CCC(C2)C1(C)C` (centres unmarked) [MECAMYLAMINE], the inhibition was 17%.
Turning to `CC(=O)O[C@]1(C(C)=O)CC[C@H]2[C@@H]3C[C@H](C)C4=CC(=O)CC[C@]4(C)[C@H]3CC[C@@]21C` [MEDROXYPROGESTERONE ACETATE], the inhibition was found to be 17%.
For `Cc1cccc(Nc2ccccc2C(=O)O)c1C` [MEFENAMIC ACID], the inhibition was -9%.
Consider `CCN(CC)CCNC(=O)COc1ccc(OC)cc1` [MEFEXAMIDE], for which the inhibition is 13%.
`Cc1cc(C)cc(OCC2CNC(=O)O2)c1` (centres unmarked) [METAXALONE]: the inhibition was -4.75%.
Consider `CC(=O)/N=c1/sc(S(N)(=O)=O)nn1C` [METHAZOLAMIDE], for which the inhibition was -4.59%.
As to `Cn1cc[nH]c1=S` [METHIMAZOLE], the inhibition was determined as 13%.
In the case of `C[C@H]1C[C@@H]2[C@H]([C@@H](O)C[C@@]3(C)[C@H]2CC[C@]3(O)C(=O)CO)[C@@]2(C)C=CC(=O)C=C12` [METHYLPREDNISOLONE], the inhibition worked out at 16%.

The test is the same for the next values; noted with them: read-out: 20mM inhibition LmjIPCS.
Regarding `CC(C)=CCC1=C(O)C(=O)c2ccccc2C1=O` [LAPACHOL], the inhibition at 20000 µM worked out at 5.55%.
Same read-out and setting: the same measure for `c1ccc([C@H]2CN3CCSC3=N2)cc1` [LEVAMISOLE]: 2.52%; for `C[C@H](N)[C@H](O)c1ccc(O)c(O)c1` [LEVONORDEFRIN]: 16%; for `CCN(CC)CC(=O)Nc1c(C)cccc1C` [LIDOCAINE]: 2.47%.
Still for that read-out and setting: then `CCC[C@@H]1C[C@@H](C(=O)N[C@@H]([C@H]2O[C@H](SC)[C@H](O)[C@@H](O)[C@H]2O)[C@@H](C)O)N(C)C1` [LINCOMYCIN], with 8.53%; and `CCOC(=O)N1CCC(=C2c3ccc(Cl)cc3CCc3cccnc32)CC1` [LORATADINE], with 21%; and `OC[C@@H]1CCCN2CCCC[C@H]12` [LUPININE], with 11%.
On the same count and under the same terms, then `NCCCC[C@H](N)C(=O)N[C@@H](Cc1ccccc1)C(=O)N[C@@H](Cc1ccc(O)cc1)C(=O)O` [LYSYLPHENYLALANYLTYROSINE] (H-Lys-Phe-Tyr-OH), with 4.61%.
`NCc1ccc(S(N)(=O)=O)cc1` [MAFENIDE]: the inhibition at 20000 µM was found to be 11%.
With `Cc1ccc(Cl)c(Nc2ccccc2C(=O)O)c1Cl` [MECLOFENAMATE], the inhibition at 20000 µM was determined as 6%.
The same measure, in the same setting: the same measure for `CC(=O)[C@H]1CC[C@H]2[C@@H]3C[C@H](C)C4=CC(=O)CC[C@]4(C)[C@H]3[C@@H](O)C[C@]12C` [MEDRYSONE]: 14%; for `CC(=O)O[C@]1(C(C)=O)CC[C@H]2[C@@H]3C=C(C)C4=CC(=O)CC[C@]4(C)[C@H]3CC[C@@]21C` [MEGESTROL ACETATE]: 15%; for `C[N+]1(C)CCCC(OC(=O)C(O)(c2ccccc2)c2ccccc2)C1` (centres unmarked) [MEPENZOLATE BROMIDE]: 16%.
As to `CNC(C)(C)Cc1ccccc1` [MEPHENTERMINE], the inhibition at 20000 µM worked out at 22%.
On the same count and under the same terms, the same measure for `O=S(=O)(O)CCS` [MESNA]: -0.783%; for `CC(C)NCC(O)c1cc(O)cc(O)c1` (centres unmarked) [METAPROTERENOL]: 7%.
Still for that read-out and setting: the same measure for `CC(=O)OC(C)C[N+](C)(C)C` (centres unmarked) [METHACHOLINE CHLORIDE]: -18%; for `C=C1c2cccc(O)c2C(=O)C2=C(O)[C@]3(O)C(=O)C(C(N)=O)=C(O)[C@@H](N(C)C)[C@@H]3[C@@H](O)[C@H]12` [METHACYCLINE]: 33%; for `COc1cccc(OC)c1C(=O)N[C@@H]1C(=O)N2[C@@H]1SC(C)(C)[C@@H]2C(=O)O` [METHICILLIN]: 17%.
As to `COc1ccccc1OCC(O)COC(N)=O` (centres unmarked) [METHOCARBAMOL], the inhibition at 20000 µM turned out to be 13%.
In the case of `COc1ccc(OC)c(C(O)C(C)N)c1` (centres unmarked) [METHOXAMINE], the inhibition at 20000 µM came to 24%.
As for `C[N+]1(C)[C@@H]2C[C@@H](OC(=O)[C@H](CO)c3ccccc3)C[C@H]1[C@@H]1O[C@@H]12` [METHSCOPOLAMINE BROMIDE], the inhibition at 20000 µM was 10%.
The same measure, in the same setting: then `COCCc1ccc(OCC(O)CNC(C)C)cc1` (centres unmarked) [METOPROLOL], with 21%.

Staying with this test, now noted: read-out: inhibition LmjIPCS.
In the case of `N[C@@H](Cc1ccc(O)c(O)c1)C(=O)O` [LEVODOPA], the inhibition stood at 21%.
Same read-out and setting: then `C[C@H]1COc2c(N3CCN(C)CC3)c(F)cc3c(=O)c(C(=O)O)cn1c23` [LEVOFLOXACIN], with 11%.
For the compound `NCCCC[C@H](N[C@@H](CCc1ccccc1)C(=O)O)C(=O)N1CCC[C@H]1C(=O)O` [LISINOPRIL], the inhibition came to 6%.
Take `CCn1cc(C(=O)O)c(=O)c2cc(F)c(N3CCNC(C)C3)c(F)c21` (centres unmarked) [LOMEFLOXACIN]: the inhibition was found to be 4%.
For the compound `CCCCc1nc(Cl)c(CO)n1Cc1ccc(-c2ccccc2-c2nn[nH]n2)cc1` [LOSARTAN], the inhibition was -2.81%.
On the same count and under the same terms, the same measure for `C[C@H]1[C@H](C)CC[C@]2(C(=O)O)CC[C@]3(C)C(=CC[C@@H]4[C@@]5(C)C[C@@H](O)[C@H](O)[C@@](C)(CO)[C@@H]5[C@H](O)C[C@]43C)[C@H]12` [MADECASSIC ACID]: 10%; for `COC(=O)Nc1nc2ccc(C(=O)c3ccccc3)cc2[nH]1` [MEBENDAZOLE]: 18%; for `COc1ccc2[nH]cc(CCNC(C)=O)c2c1` [MELATONIN]: -5.63%.
As to `Cc1cnc(NC(=O)C2=C(O)c3ccccc3S(=O)(=O)N2C)s1` [MELOXICAM], the inhibition was found to be 11%.
The same measure, in the same setting: then `CN1C[C@H](CNC(=O)OCc2ccccc2)C[C@@H]2c3cccc4c3c(cn4C)C[C@H]21` [METERGOLINE], with 11%.
For the compound `CN(Cc1cnc2nc(N)nc(N)c2n1)c1ccc(C(=O)N[C@@H](CCC(=O)O)C(=O)O)cc1` [METHOTREXATE], the inhibition amounted to 8%.
On to `CCN(CC)CCNC(=O)c1cc(Cl)c(N)cc1OC` [METOCLOPRAMIDE], for which the inhibition was determined as 6%.
On the same count and under the same terms, the same measure for `Cc1ncc([N+](=O)[O-])n1CCO` [METRONIDAZOLE]: 7%.

The test is the same for the next values; noted with them: screening of NINDS set, sheet Screen 1; read-out: inhibition LmjIPCS.
Regarding `Cc1ccccc1OCC(O)CO` (centres unmarked) [MEPHENESIN], the inhibition is 3.35%.
On to `S=c1[nH]cnc2nc[nH]c12` [MERCAPTOPURINE], for which the inhibition turned out to be 6%.
As for `C=N[C@@H](C(=O)N[C@@H]1C(=O)N2[C@@H]1SC(C)(C)[C@@H]2C(=O)O)c1ccccc1` [METAMPICILLIN], the inhibition came out at 10%.
For the compound `C1N2CN3CN1CN(C2)C3` [METHENAMINE], the inhibition came out at 6%.
For the compound `C[C@](N)(Cc1ccc(O)c(O)c1)C(=O)O` [METHYLDOPA], the inhibition stood at 8%.
Turning to `Cc1cc(=O)[nH]c(=S)[nH]1` [METHYLTHIOURACIL], the inhibition was found to be 7%.

The test is the same for the next values; noted with them: single concentration 20mM as printed; screening of NINDS set, sheet Screen 1.
On to `CC1CCC(C(C)C)C(O)C1` (stereo not drawn) [MENTHOL(-)], for which the “20mM inhibition LmjIPCS” value worked out at 4%.

One may read the inhibition as the change of the read-out against control, counted positive when it falls.
